Converted amounts (≈) assume the structure as drawn. “Also recorded” adds a separate entry of the source. Where two headings read alike, the source gives them in different places.
Tests used:
Format in all cases: physicochemical
[1] = Thermodynamic solubility in simulated media and buffers; settings: for solubility at 24 h: 25 °C, thermodynamic from solid
Description: The thermodynamic solubility for Pattern 11 was determined in 3 simulated media and two buffers. […]

[2] = Gravimetric vapor sorption (GVS) and XRPD post-GVS; settings: for GVS reversible water uptake 0-90% RH: 25° C.; for Post GVS XRPD form: after double cycle GVS
Description: Sorption isotherms were obtained using a SMS DVS Intrinsic moisture sorption analyzer, controlled by DVS Intrinsic Control software. The sample temperature was maintained at 25° C. by the instrument controls. The humidity was controlled by mixing streams of dry and wet nitrogen, with a total flow rate of 200 mL/min. The relative humidity was measured by a calibrated Rotronic probe (dynamic range of 1.0-100% RH), located near the sample. The weight change, (mass relaxation) of the sample as a function of % RH was constantly monitored by a microbalance (accuracy±0.005 mg).
Typically, 5-30 mg of sample was placed in a tared mesh stainless steel basket under ambient conditions. The sample was loaded and unloaded at 40% RH and 25° C. (typical room conditions). A moisture sorption isotherm was performed as outlined below (2 scans per complete cycle). The standard isotherm was performed at 25° C. at 10% RH intervals over a 0-90% RH range. Typically, a double cycle (4 scans) was carried out. Data analysis was carried out within Microsoft Excel using the DVS Analysis Suite.
Sorption isotherms were obtained using a Hiden IGASorp moisture sorption analyser, controlled by Isochema HISorp software. The sample temperature was maintained at 25° C. by a Grant LT ecocool 150 re-circulating water bath. The humidity was controlled by mixing streams of dry and wet nitrogen, with a total flow rate of 250 ml·min-1. The relative humidity was measured by a calibrated Vaisala RH probe (dynamic range of 0-95% RH), located near the sample. The weight change, (mass relaxation) of the sample as a function of % RH was constantly monitored by the microbalance (accuracy±0.001 mg).
Typically, 20-30 mg of sample was placed in a tared mesh stainless steel basket under ambient conditions. The sample was loaded and unloaded at 40% RH and 25° C. (typical room conditions). A moisture sorption isotherm was performed as outlined below (2 scans giving 1 complete cycle). The standard isotherm was performed at 25° C. at 10% RH intervals over a 0-90% RH range. Typically, a double cycle (4 scans) was carried out. Data analysis was carried out within the Isochema HISorp 2019 software and exported into Microsoft Excel to present accordingly.

[3] = Static storage at 40° C./75% RH, XRPD and HPLC post storage
Summary of the method: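 Solids isolated as counter-ion salts of the compound were stored statically at 40° C./75% RH and then re-examined by XRPD for solid-form changes. Chemical purity after storage was checked on an Agilent HP1100/Infinity II 1260 series HPLC system fitted with a diode array detector and running OpenLAB software.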

[4] = Static storage at 25° C./97% RH, XRPD and HPLC post storage; settings: 10 days
[5] = Competitive slurries of Pattern 3 and Pattern 11, XRPD
Description: A solid mixture of Structure (I) Pattern 3 (from Lot B, 300 mg) and Pattern 11 (Sample 35-1, 300 mg) was mixed for 3 hours using a turbula mixer.
The solid mixture (30 mg) was suspended in solvent (dried with molecular sieves, 600 μL, 20 vol) and either stirred in the fridge, shaken at RT or 55° C. After 7 days, an aliquot of each suspension was analyzed by XRPD. Samples that were still a mixture of forms were placed back into fridge/shakers for a further 10 days and re-analyzed (results shown in Table 36).
Competitive slurry experiments at 55° C., along with one at 5° C., were repeated using a saturated solution as the solvent mixture to minimize dissolution that may have occurred at temperatures other than room temperature.
A saturated solution of THF/Water (9:1) (5 mL) with Structure (I) (from Lot B) was equilibrated at 55° C. overnight in a shaker. The solution was filtered using 0.45 μm nylon filter before use.
A solid mixture of Pattern 3 and Pattern 11 (30 mg) was suspended in the saturated solution (600 μL, 20 vol) and either stirred in the fridge (5° C.) or shaken at 55° C. After 1 day, aliquots of the suspensions were analyzed by XRPD. Both samples were placed back into fridge/shaker. After a total of 11 days, the samples were removed from fridge/shaker. Sample 38-2 was filtered before XRPD, Sample 38-1 was pipetted onto the XRPD holder and allowed to dry before analysis (solid passed through filter).

[6] = Drying / standing under ambient conditions, XRPD; settings: ambient conditions
Description: Structure (I) (Sample 28-2, 30 mg, Poorly Crystalline Pattern 3) was wetted with solvent (300 μL, 10 vol) according to Table 30 and put into a shaker at 50° C. for 6 days. The suspensions were isolated using filter cartridges and positive pressure. A XRPD pattern was collected for each sample. […] This characterization is presented and discussed in Examples detailed herein. (see, e.g., FIG. 75)

[7] = Static storage at 40° C./75% RH, XRPD and HPLC post storage; settings: 7 days, listed as 34-1
[8] = Drying / standing under ambient conditions, XRPD; settings: listed as 34-1
pKa measurements = assay: pKa measurements
[9] = Slurry in pH 2.0 buffer, XRPD; settings: pH 2.0 chloride buffer, RT, 5 days
Description: Structure (I) (from Lot B, 30 mg) was suspended in pH 2.0 buffer (chloride buffer, 3 mL) and placed in a shaker at RT. After 1 day, the sample was filtered and analyzed by XRPD. The sample was re-suspended in pH 2.0 buffer (2 mL) and returned to shaking at RT for 4 days. The sample was aliquoted and analyzed by XRPD, before filtration and drying under suction.

[10] = Heating for 24 h in a vacuum tray dryer, XRPD and HPLC
Description: A polymorphism study of Structure (I) was performed at 75° C., 100° C., 175° C., and 250° C. About 500 mg of Structure (I) Pattern 3 was heated at 75° C. for 24 h in a vacuum tray dryer (VTD) under reduced pressure. Obtained material after heating at 75° C. was analyzed for purity by HPLC and XPRD analysis. […] Additionally, about 500 mg of Structure (I) was heated at 75° C. for 24 h in a VTD under reduced pressure. After 24 h, material was cooled to 25-30° C. under inert atmosphere and analyzed for purity by HPLC and XRPD.
About 500 mg of Structure (I) was heated at 100° C. for 24 h in a VTD under reduced pressure. Obtained material after heating at 100° C. was analyzed for purity by HPLC and XPRD. […] Additionally, about 500 mg of Structure (I) was heated at 100° C. for 24 h in a VTD under reduced pressure. After 24 h material was cooled to 25-30° C. under inert atmosphere. Obtained material was analyzed for purity by HPLC and XPRD.
Obtained material after heating at 175° C. was analyzed for purity by HPLC and XPRD. […] After 24 h, material was cooled to 25-30° C. under inert atmosphere. Obtained material was analyzed for purity by HPLC and XPRD.
About 500 mg of Structure (I) was heated at 250° C. for 24 h in a VTD. Obtained material after heating at 250° C. was analyzed for purity by HPLC and XPRD.

## Cc1cc(Nc2cc(N)ncn2)c(=O)n2c1C(=O)NC21CCC2(CC2)CC1 [Pattern 11]
[1]; FaSSGF, 25° C./24 h, listed as 35-1
  Solubility FaSSGF: FaSSGF-0.078 mg/mL
[1]; FaSSIF, fassif, FaSSIF, 25° C./24 h, read-out: Solubility FaSSIF
  solubility at 24 h: 1.4 µg/mL (≈ 3.82 µM)
[1]; FeSSIF, fessif, FeSSIF, 25° C./24 h, read-out: Solubility FeSSIF
  solubility at 24 h: 4 µg/mL (≈ 10.9 µM)
[1]; pH 2.0 buffer, 25° C./24 h, listed as 35-1
  Solubility pH 2.0: pH 2.0-0.052 mg/mL
[1]; pH 7.4 buffer, pH 7.4, aqueous buffer, pH 7.4 buffer, 25° C./24 h, read-out: Solubility pH 7.4
  solubility at 24 h: 1 µg/mL (≈ 2.73 µM)
[1]; simulated media and buffers
  solubility in simulated fluids and buffers (in words): practically insoluble
[2]
  hygroscopicity (in words): only slightly hygroscopic
  GVS reversible water uptake 0-90% RH: 0.3 wt %
  Post GVS XRPD form: remained Pattern 11
[2]; listed as 35-1
  GVS reversible water uptake 0-90% RH: 0.3 wt % reversible water uptake 0-90% RH with a
  Post GVS XRPD form: Post GVS XRPD: Pattern 11 + peak at 7.7°
[2]; listed as Structure (I) Pattern 11
  hygroscopicity (in words): only slightly hygroscopic
[3]; 40° C./75% RH (elevated temperature and humidity)
  stability to storage at 40° C./75% RH (in words): reasonable stability; also recorded: good stability
[3]; 40° C./75% RH, 3 days
  XRPD form after storage at 40° C./75% RH, 3 days: 3 days: No change in form-Pattern 11
[3]; 40° C./75% RH, 10 days
  Static storage 40° C./75% RH, form: form and purity was found to stable
  Static storage 40° C./75% RH, purity: Purity: 98.0%
[3]; 40° C./75% RH, 10 days, listed as 35-1
  Static storage 40° C./75% RH, form: 10 days: No change in form-Pattern 11
[4]
  Static storage 25° C./97% RH, form: 10 days: No change in form-Pattern 11
  Static storage 25° C./97% RH, purity: Purity: 98.1%
[5]
  form conversion in competitive slurries (in words): no conversion of Pattern 11 to Pattern 3
[6]
  form under ambient conditions (XRPD after ambient overnight): stable at ambient conditions; also recorded: stable at room temperature
[7]
  XRPD post storage at 40° C./75% RH: 7 days: Pattern 11 + extra peaks (not
[8]
  form under ambient conditions (XRPD after ambient overnight): Pattern 11

## Cc1cc(Nc2cc(N)ncn2)c(=O)n2c1C(=O)NC21CCC2(CC2)CC1 [Structure (I), 6″-((6-aminopyrimidin-4-yl)amino)-8″-methyl-2″H-dispiro[cyclopropane-1, l′-cyclohexane-4′,3″-imidazo[1,5-a]pyridine]-1″,5″-dione]
pKa measurements; read-out: acidic pKa (acidic center)
  pKa: 11.5
pKa measurements; read-out: basic pKa
  pKa: 4.73
[9]
  XRPD form after slurry in pH 2.0 buffer: Pattern 1
[10]; 100° C., reduced pressure
  HPLC purity change after heating at 100° C.: no change
  XRPD form after heating at 100° C.: remained as Pattern 3
[10]; 175° C., reduced pressure
  HPLC purity change after heating at 175° C.: no change
  XRPD form after heating at 175° C.: converted to Pattern 11
[10]; 250° C.
  XRPD form after heating at 250° C.: converted to Pattern 11
